Experimental findings from patent publication US20160024083A1, “COMPOUNDS AND METHODS FOR TREATING CANCERS” (HEALTH RESEARCH, INC., priority 2013, published 2016) are described below.

In general, IC50 refers to the concentration needed to halve the response being measured.

Common to all, as to assay type: cell-based
Experiment [1] has as its system CWR22R. As to the kind of experiment: cells. How it is done:
FIG. 21. Toxicity of PLA1055 to CWR22R cells in vitro depending on time of incubation. PLA1055 was added to CWR22R in full range of concentrations for the periods of time shown on the right. After that drug containing media were changed for drug free and survival of cells was detected at 72 hours after start of treatment using Alamar Blue assay (Promega).
(§1) This example provides a table (below) of the compounds of the present disclosure and their activity towards four different cell lines (i.e., CWR22R, HeLa, PC3, and MDA-MB-231). The IC50 for inhibition of growth is divided into 4 categories: A<1 μM, B 1-5 μM, C 5-20 μM, D>20 μM.
(§2) All compounds were tested for toxicity using 4 cells lines, target cells—CWR22R and non-target cells, Hela, PC3 and MDA-MB-231 (FIGS. 1A-F).
LC50 data of in vitro 72 hours cytotoxicity assay are included in this table for comparison.
An in vitro experiment was run to detect the concentration of PLA1055 needed to kill all tumor cells in vitro (LC90) during different periods of time (30 minutes-72 hours, FIG. 21)).

Experiment [2] relates to Hela. Briefly: Inhibition of growth / toxicity in non-target Hela cells. As to the method: as §1, §2
The subject of experiment [3] is PC3. As to the kind of experiment: Inhibition of growth / toxicity in non-target PC3 cells. The following applies: Homo sapiens, PC-3. As to the method: as §1, §2
The test system of experiment [4] is MDA-MB-231. As to the kind of experiment: Inhibition of growth / toxicity in non-target MDA-MB-231 cells. How it is done:
as §1, §2

Setting [5] is: Homo sapiens, 22Rv1, CWR22R, read-out: IC50 for inhibition of growth.
The mark [6] stands for this setting: CWR22R, read-out: IC50 for inhibition of growth.

Read-outs that look alike come from different tables or passages of the source.

In the case of `CCCn1c2ccccc2c2cc(Br)ccc21` [Compound 1-1, 3-Bromo-9-propyl-9H-carbazole], the IC50 was 1 to 5 µM in experiment [1] (Homo sapiens, 22Rv1, read-out: IC50 for inhibition of growth, CWR22R); over 20 µM in experiment [2] (Homo sapiens, HeLa); over 20 µM in experiment [3]; over 20 µM in experiment [4] (Homo sapiens).

On to `CC(=O)c1ccc2c(c1)c1ccccc1n2CCCF` [Compound 1-2], for which the concentration for half-maximal inhibition (IC50) in experiment [1] (setting [5]) was under 1 µM; in experiment [2] (Homo sapiens, HeLa), over 20 µM; in experiment [3], over 20 µM; in experiment [4] (Homo sapiens) it was over 20 µM.

With `CCCn1c2ccccc2c2cc(-c3cccs3)ccc21` [Compound 2-1, 9-Propyl-3-thiophen-2-yl-9H-carbazole], the IC50 in experiment [1] (setting [5]) was under 1 µM; in experiment [2] (Homo sapiens, HeLa), over 20 µM; in experiment [3], over 20 µM; in experiment [4] (Homo sapiens), over 20 µM.

For the molecule `CCCn1c2ccccc2c2cc(-c3ccc(C)s3)ccc21` [Compound 2-2], the IC50 in experiment [1] (setting [5]) is over 20 µM; in experiment [2] (Homo sapiens, HeLa), over 20 µM; in experiment [3], over 20 µM; in experiment [4] (Homo sapiens), over 20 µM.

In the case of `CCCn1c2ccccc2c2cc(-c3cnoc3)ccc21` [Compound 2-5], the IC50 in experiment [1] (setting [5]) is under 1 µM; in experiment [2] (Homo sapiens, HeLa) it was over 20 µM; in experiment [3], over 20 µM; in experiment [4] (Homo sapiens), over 20 µM.

`CCn1c2ccccc2c2cc(-c3cccs3)ccc21` [Compound 2-6]: the IC50 in experiment [1] (setting [5]) was 1 to 5 µM; in experiment [2] (Homo sapiens, HeLa) it was over 20 µM; in experiment [4] (Homo sapiens) it was over 20 µM.

On to `CCCn1c2ccccc2c2cc(-c3ncco3)ccc21` [Compound 4-1, 3-Oxazol-2-yl-9-propyl-9H-carbazole], for which the IC50 is 1 to 5 µM in experiment [1] (setting [5]); over 20 µM in experiment [2] (Homo sapiens, HeLa); over 20 µM in experiment [3]; over 20 µM in experiment [4] (Homo sapiens).

For `CCCn1c2ccccc2c2cc(-c3nccs3)ccc21` [Compound 4-2], the IC50 in experiment [1] (setting [5]) was over 20 µM; in experiment [2] (Homo sapiens, HeLa) it was over 20 µM; in experiment [3] it was over 20 µM; in experiment [4] (Homo sapiens) it was over 20 µM.

With `CCn1c2ccccc2c2cc(-c3ccccn3)ccc21` [Compound 4-4], the IC50 in experiment [1] (setting [5]) was 5 to 20 µM; in experiment [2] (Homo sapiens, HeLa), over 20 µM; in experiment [3], over 20 µM; in experiment [4] (Homo sapiens), over 20 µM.

Regarding `CCCn1c2ccccc2c2cc(-c3ccccn3)ccc21` [Compound 4-5], the IC50 is 1 to 5 µM in experiment [1] (setting [5]); over 20 µM in experiment [2] (Homo sapiens, HeLa); over 20 µM in experiment [3]; over 20 µM in experiment [4] (Homo sapiens).

`CCCn1c2ccc(C(C)=O)cc2c2c(F)cccc21` [Compound 5-1, 1-(5-Fluoro-9-propyl-9H-carbazol-3-yl)-ethanone]: the IC50 in experiment [1] (setting [5]) was under 1 µM; in experiment [2] (Homo sapiens, HeLa), over 20 µM; in experiment [3], over 20 µM; in experiment [4] (Homo sapiens) it was over 20 µM.

Consider `CCCn1c2ccc(C(C)=O)cc2c2ccc(F)cc21` [Compound 5-2], for which the IC50 in experiment [1] (setting [5]) is 5 to 20 µM; in experiment [2] (Homo sapiens, HeLa), over 20 µM; in experiment [3] it was over 20 µM; in experiment [4] (Homo sapiens) it was over 20 µM.

With `CC(=O)c1ccc2c(c1)c1c(C(N)=O)cccc1n2CCCF` [Compound 5-8], the IC50 is under 1 µM in experiment [1] (setting [5]); over 20 µM in experiment [2] (Homo sapiens, HeLa); over 20 µM in experiment [3]; over 20 µM in experiment [4] (Homo sapiens).

On to `CCCn1c2ccccc2c2cc(C(C)=O)cnc21` [Compound 5-10], for which the IC50 in experiment [1] (setting [5]) is under 1 µM; in experiment [2] (Homo sapiens, HeLa) it was over 20 µM; in experiment [3] it was over 20 µM; in experiment [4] (Homo sapiens) it was over 20 µM.

As to `CCOC(=O)c1cnc2c(c1)c1ccccc1n2CCCF` [Compound 5-11, 9-(3-fluoropropyl)-9H-pyrido[2,3-b]indole-3-carboxylic acid ethyl ester], the IC50 in experiment [1] (setting [5]) was 1 to 5 µM; in experiment [2] (Homo sapiens, HeLa) it was over 20 µM; in experiment [3], over 20 µM; in experiment [4] (Homo sapiens) it was over 20 µM.

`CCCn1c2ccc(C(C)=O)cc2c2ncccc21` [Compound 5-13]: the IC50 was 1 to 5 µM in experiment [1] (setting [5]); over 20 µM in experiment [2] (Homo sapiens, HeLa); over 20 µM in experiment [3]; over 20 µM in experiment [4] (Homo sapiens).

Turning to `CCCn1c2ccc(C(C)=O)cc2c2c(OC)cccc21` [Compound 6-1, 1-(5-Methoxy-9-propyl-9H-carbazol-3-yl)-ethanone], the IC50 in experiment [1] (setting [5]) is under 1 µM; in experiment [2] (Homo sapiens, HeLa), over 20 µM; in experiment [3], over 20 µM; in experiment [4] (Homo sapiens) it was over 20 µM.

Turning to `CNC(=O)c1cccc2c1c1cc(C(C)=O)ccc1n2CCCF` [Compound 6-4], the IC50 in experiment [1] (setting [5]) is 5 to 20 µM; in experiment [2] (Homo sapiens, HeLa) it was over 20 µM; in experiment [3], over 20 µM; in experiment [4] (Homo sapiens), over 20 µM.

Take `NC(=O)c1cnc2c(c1)c1ccccc1n2CCCF` [Compound 7-1, 9-(3-Fluoropropyl)-9H-pyrido[2,3-b]indole-3-carboxamide]: the IC50 was 1 to 5 µM in experiment [1] (setting [5]); over 20 µM in experiment [2] (Homo sapiens, HeLa); over 20 µM in experiment [3]; over 20 µM in experiment [4] (Homo sapiens).

For the molecule `CCCn1c2ccccc2c2cc(-c3nnco3)ccc21` [Compound 8-1, 3-[1,3,4]Oxadiazol-2-yl-9-propyl-9H-carbazole], the IC50 in experiment [1] (setting [5]) was under 1 µM; in experiment [2] (Homo sapiens, HeLa), over 20 µM; in experiment [3] it was over 20 µM; in experiment [4] (Homo sapiens), over 20 µM.

As for `CCCn1c2ccccc2c2cc(-c3nncs3)ccc21` [Compound 8-3], the IC50 in experiment [1] (setting [5]) was over 20 µM; in experiment [2] (Homo sapiens, HeLa), over 20 µM; in experiment [3] it was over 20 µM; in experiment [4] (Homo sapiens) it was over 20 µM.

As to `FCCCn1c2ccccc2c2cc(-c3nnco3)cnc21` [Compound 8-4], the concentration for half-maximal inhibition (IC50) in experiment [1] (setting [5]) is under 1 µM; in experiment [2] (Homo sapiens, HeLa), over 20 µM; in experiment [3], over 20 µM; in experiment [4] (Homo sapiens), over 20 µM.

As to `FCCCn1c2ccccc2c2cc(-c3nnco3)ccc21` [Compound 9-1, 9-(3-Fluoropropyl)-3-[1,3,4]oxadiazol-2-yl-carbazole], the IC50 in experiment [1] (setting [5]) is under 1 µM; in experiment [2] (Homo sapiens, HeLa), over 20 µM; in experiment [3] it was over 20 µM; in experiment [4] (Homo sapiens), over 20 µM.

With `FCCCn1c2ccc(-c3nnco3)cc2c2ncccc21` [Compound 10-1, 5-(3-Fluoropropyl)-8-[1,3,4]oxadiazol-2-yl-5H-pyrido[3,2-b]indole], the concentration for half-maximal inhibition (IC50) is over 20 µM in experiment [1] (setting [6]); over 20 µM in experiment [2] (Homo sapiens, HeLa); over 20 µM in experiment [4] (Homo sapiens).

On to `FCCCn1c2ccc(-c3nnco3)cc2c2ncccc21` [Compound 10-2], for which the IC50 is 5 to 20 µM in experiment [1] (setting [6]), over 20 µM in experiment [2] (Hela) and over 20 µM in experiment [4].

Take `FCCCn1c2ccccc2c2cc(-c3cnco3)ccc21` [Compound 11-1, 9-(3-Fluoropropyl)-3-oxazol-5-yl-9H-carbazole]: the IC50 was under 1 µM in experiment [1] (setting [5]); over 20 µM in experiment [2] (Homo sapiens, HeLa); over 20 µM in experiment [3]; over 20 µM in experiment [4] (Homo sapiens).

As for `CCCn1c2ccccc2c2cc(-c3cnco3)ccc21` [Compound 11-2], the IC50 in experiment [1] (setting [5]) was under 1 µM; in experiment [2] (Homo sapiens, HeLa), over 20 µM; in experiment [3] it was over 20 µM; in experiment [4] (Homo sapiens) it was over 20 µM.

Take `CCCn1c2ccccc2c2cc(-c3cocn3)ccc21` [Compound 12-1, 3-Oxazol-4-yl-9-propyl-9H-carbazole]: the IC50 is over 20 µM in experiment [1] (setting [5]); over 20 µM in experiment [2] (Homo sapiens, HeLa); over 20 µM in experiment [3]; over 20 µM in experiment [4] (Homo sapiens).

`CCCn1c2ccccc2c2cc(-c3ccno3)ccc21` [Compound 13-1, 3-Isoxazol-5-yl-9-propyl-9H-carbazole]: the IC50 in experiment [1] (setting [5]) was 1 to 5 µM; in experiment [2] (Homo sapiens, HeLa), over 20 µM; in experiment [3] it was over 20 µM; in experiment [4] (Homo sapiens), over 20 µM.

As to `FCCCn1c2ccccc2c2cc(-c3ccno3)ccc21` [Compound 13-2], the IC50 is under 1 µM in experiment [1] (setting [5]); over 20 µM in experiment [2] (Homo sapiens, HeLa); over 20 µM in experiment [3]; over 20 µM in experiment [4] (Homo sapiens).

Regarding `FCCCn1c2ccccc2c2cc(-n3cncn3)ccc21` [Compound 14-1, 9-(3-Fluoropropyl)-3-[1,2,4]triazol-1-yl-9H-carbazole], the concentration for half-maximal inhibition (IC50) in experiment [1] (setting [5]) was under 1 µM; in experiment [2] (Homo sapiens, HeLa), over 20 µM; in experiment [3] it was over 20 µM; in experiment [4] (Homo sapiens), over 20 µM.

`CCCn1c2ccccc2c2cc(C3=NCCO3)ccc21` [Compound 15-2]: the IC50 in experiment [1] (setting [5]) was over 20 µM; in experiment [2] (Homo sapiens, HeLa), over 20 µM; in experiment [3], over 20 µM; in experiment [4] (Homo sapiens) it was over 20 µM.

Consider `CC(=O)c1cc2c3ccccc3n(CCCF)c2cn1` [Compound 17-1, 1-[9-(3-Fluoropropyl)-9H-beta-carbolin-3-yl]-ethanone], for which the half-maximal inhibitory concentration (IC50) in experiment [1] (setting [5]) was under 1 µM; in experiment [2] (Homo sapiens, HeLa), over 20 µM; in experiment [3] it was over 20 µM; in experiment [4] (Homo sapiens) it was over 20 µM.

With `CCCn1c2ccccc2c2cc(C(C)=O)ncc21` [Compound 17-3], the IC50 in experiment [1] (setting [5]) was 5 to 20 µM; in experiment [2] (Homo sapiens, HeLa), over 20 µM; in experiment [3] it was over 20 µM; in experiment [4] (Homo sapiens) it was over 20 µM.

As for `CC(=O)c1ccc2c(c1)c1ccccc1n2CCC(F)F` [Compound 18-2, 1-[9-(3,3-Difluoropropyl)-9H-carbazol-3-yl]-ethanone], the IC50 in experiment [1] (setting [5]) is under 1 µM; in experiment [2] (Homo sapiens, HeLa) it was over 20 µM; in experiment [3], over 20 µM; in experiment [4] (Homo sapiens) it was over 20 µM.

In the case of `CCCn1c2ccc(C(C)=O)cc2c2c(C(N)=O)cccc21` [Compound 19-1, 6-Acetyl-9-propyl-9H-carbazole-4-carboxamide], the IC50 in experiment [1] (setting [5]) is 1 to 5 µM; in experiment [2] (Homo sapiens, HeLa) it was over 20 µM; in experiment [3], over 20 µM; in experiment [4] (Homo sapiens), over 20 µM.
